# Assay results reported in patent US9624182B2, “Compounds as lysophosphatidic acid receptor antagonists” (Amira Pharmaceuticals, Inc., priority 2009, dated 2017).
# Molecular target: T1, human LPA1 (Homo sapiens, UniProt Q92633)
# T1 construct: the full-length cDNA for human LPA1 was obtained by PCR of the reverse transcription reaction; expressed in transfected cells
# Assay: LPA1 calcium flux assay
# Type: cell-based
# Settings: CHO cells expressing human LPA1, stimulated with 10 nM LPA; read-out: HLPA1 Ca Flux IC50
# Procedure: A 1.1 kb cDNA encoding the human LPA1 receptor was cloned from human lung. Human lung RNA (Clontech Laboratories, Inc. USA) was reverse transcribed using the RETROscript kit (Ambion, Inc.) and the full-length cDNA for human LPA1 was obtained by PCR of the reverse transcription reaction. The nucleotide sequence of the cloned human LPA1 was determined by sequencing and confirmed to be identical to the published human LPA1 sequence (An et al. Biochenm. Biophys. Res. Commun. 231:619 (1997). The cDNA was cloned into the pCDNA5/FRT expression plasmid and transfected in CHO cells using lipofectamine 2000 (Invitrogen Corp., USA). Clones stably expressing human LPA1 were selected using hygromycin and identified as cells that show Ca-influx in response to LPA.
# Human LPA1 or LPA3 expressing CHO cells are seeded at 20,000-45,000 cells per well in a 96-well poly-D-lysine coated plate one or two days before the assay. Prior to the assay, the cells are washed once with PBS and then cultured in serum-free media overnight. On the day of the assay, a calcium indicator dye (Calcium 4, Molecular Devices) in assay buffer (HBSS with Ca^2+ and Mg^2+ and containing 20 mM Hepes and 0.3% fatty-acid free human serum albumin) is added to each well and incubation continued for 1 hour at 37° C. 10 μl of test compounds in 2.5% DMSO are added to the cells and incubation continued at room temperature for 30 minutes. Cells are the stimulated by the addition of 10 nM LPA and intracellular Ca^2+ measured using the Flexstation 3 (Molecular Devices). IC50s are determined using Graphpad prism analysis of drug titration curves.
# T1 sequence (Q92633 whole entry): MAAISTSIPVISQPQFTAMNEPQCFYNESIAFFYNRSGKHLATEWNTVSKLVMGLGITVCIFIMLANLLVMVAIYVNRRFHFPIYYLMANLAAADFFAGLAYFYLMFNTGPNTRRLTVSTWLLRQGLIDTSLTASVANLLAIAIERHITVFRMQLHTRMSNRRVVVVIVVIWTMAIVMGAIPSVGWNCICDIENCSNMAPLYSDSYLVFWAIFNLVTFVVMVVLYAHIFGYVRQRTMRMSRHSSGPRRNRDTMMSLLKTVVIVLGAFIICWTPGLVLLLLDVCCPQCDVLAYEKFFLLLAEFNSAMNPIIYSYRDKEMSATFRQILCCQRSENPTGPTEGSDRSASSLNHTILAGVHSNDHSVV
row,Compound,IC50 [nM]
1,"Cc1noc(-c2ccc(-c3ccc([C@@H]4C[C@H]4C(=O)O)cc3)cc2)c1/C=C/CCc1ccccc1 (relative stereo) [Compound 1-128, (trans)-2-{4′-[3-Methyl-4-(4-phenyl-but-1-enyl)-isoxazol-5-yl]-biphenyl-4-yl}-cyclopropanecarboxylic acid]",1000 to 50000
2,"Cc1noc(-c2ccc(-c3ccc([C@H]4C[C@H]4C(=O)O)cc3)cc2)c1/C=C/CCc1ccccc1 (relative stereo) [Compound 1-129, (cis)-2-{4′-[3-Methyl-4-(4-phenyl-but-1-enyl)-isoxazol-5-yl]-biphenyl-4-yl}-cyclopropanecarboxylic acid]",< 300
3,"Cc1noc(-c2ccc(-c3ccc([C@@H]4C[C@H]4C(=O)O)cc3)cc2)c1CSCCc1ccccc1 (relative stereo) [Compound 1-130, (trans)-2-[4′-(3-Methyl-4-phenethylsulfanylmethyl-isoxazol-5-yl)-biphenyl-4-yl]-cyclopropanecarboxylic acid]",300 to 1000
4,"Cc1noc(-c2ccc(-c3ccc([C@H]4C[C@H]4C(=O)O)cc3)cc2)c1CSCCc1ccccc1 (relative stereo) [Compound 1-131, (cis)-2-[4′-(3-Methyl-4-phenethylsulfanylmethyl-isoxazol-5-yl)-biphenyl-4-yl]-cyclopropanecarboxylic acid]",< 300
5,"Cc1noc(-c2ccc(-c3ccc([C@H]4C[C@H]4C(=O)O)cc3)cc2)c1CC(F)(F)CCc1ccccc1 (relative stereo) [Compound 1-135, (cis)-2-{4′-[4-(2,2-Difluoro-4-phenyl-butyl)-3-methyl-isoxazol-5-yl]-biphenyl-4-yl}-cyclopropanecarboxylic acid]",< 300
6,"Cc1noc(-c2ccc(-c3ccc([C@H]4C[C@H]4C(=O)O)cc3)cc2)c1C(O)CCCc1ccccc1 (relative stereo) [Compound 1-144, (cis)-2-{4′-[4-(1-Hydroxy-4-phenyl-butyl)-3-methyl-isoxazol-5-yl]-biphenyl-4-yl}-cyclopropanecarboxylic acid]",< 300
7,"Cc1noc(-c2ccc(-c3ccc([C@H]4C[C@H]4C(=O)O)cc3)cc2)c1CSCCc1ccccc1 (single isomer, unassigned) [Compound 1-149, (cis)-2-[4′-(3-Methyl-4-phenethylsulfanylmethyl-isoxazol-5-yl)-biphenyl-4-yl]-cyclopropanecarboxylic acid]",< 300
8,"Cc1noc(-c2ccc(-c3ccc([C@H]4C[C@H]4C(=O)O)cc3)cc2)c1CSCCc1ccccc1 (single isomer, unassigned) [Compound 1-150, (cis)-2-[4′-(3-Methyl-4-phenethylsulfanylmethyl-isoxazol-5-yl)-biphenyl-4-yl]-cyclopropanecarboxylic acid]",1000 to 50000
9,"Cc1noc(-c2ccc(-c3ccc(C4(C(=O)O)CC4)cc3)cc2)c1C(O)CCCc1ccccc1 (single isomer, unassigned) [Compound 1-156, 1-{4′-[4-(1-Hydroxy-4-phenyl-butyl)-3-methyl-isoxazol-5-yl]-biphenyl-4-yl}-cyclopropanecarboxylic acid]",< 300
10,"Cc1noc(-c2ccc(-c3ccc(CC(=O)O)cc3)cc2)c1C(O)CCCc1ccccc1 (single isomer, unassigned) [Compound 1-174, {4′-[4-(1-Hydroxy-4-phenyl-butyl)-3-methyl-isoxazol-5-yl]-biphenyl-4-yl}-acetic acid]",< 300
11,"Cc1noc(-c2ccc(-c3ccc(C4(CC(=O)O)CC4)cc3)cc2)c1C(O)CCCc1ccccc1 (single isomer, unassigned) [Compound 1-176, (1-{4′-[4-(1-Hydroxy-4-phenyl-butyl)-3-methyl-isoxazol-5-yl]-biphenyl-4-yl}-cyclopropyl)-acetic acid]",< 300
12,"Cc1noc(-c2ccc(-c3ccc(C4(CC(=O)O)CC4)cc3)cc2)c1C(O)CCCc1ccccc1 (single isomer, unassigned) [Compound 1-177, (1-{4′-[4-(1-Hydroxy-4-phenyl-butyl)-3-methyl-isoxazol-5-yl]-biphenyl-4-yl}-cyclopropyl)-acetic acid]",< 300

# Next, values leading:
row,IC50 [nM],Compound
1,< 300,"Cc1noc(-c2ccc(-c3ccc(C4(C(=O)O)CC4)cc3)cc2)c1C(O)COCc1ccccc1 (single isomer, unassigned) [Compound 1-198, 1-{4′-[4-(2-Benzyloxy-1-hydroxy-ethyl)-3-methyl-isoxazol-5-yl]-biphenyl-4-yl}-cyclopropanecarboxylic acid]"
2,< 300,"Cc1noc(-c2ccc(-c3ccc(C4(C(=O)O)CC4)cc3)cc2)c1C(O)COCc1ccccc1 (single isomer, unassigned) [Compound 1-199, 1-{4′-[4-(2-Benzyloxy-1-hydroxy-ethyl)-3-methyl-isoxazol-5-yl]-biphenyl-4-yl}-cyclopropanecarboxylic acid]"
3,< 300,"Cc1noc(-c2ccc(-c3ccc(C4CC4C(=O)O)cc3)cc2)c1[C@H](O)COCc1ccccc1 (single isomer, unassigned) [Compound 1-216]"
4,< 300,"Cc1noc(-c2ccc(-c3ccc(C4CC4C(=O)O)cc3)cc2)c1[C@H](O)COCc1ccccc1 (single isomer, unassigned) [Compound 1-217]"
5,< 300,"Cc1noc(-c2ccc(-c3ccc(C4(C(=O)O)CC4)cc3)cc2)c1NC(C)CCc1ccccc1 (single isomer, unassigned) [Compound 1-220, 1-{4′-[3-Methyl-4-(1-methyl-3-phenyl-propylamino)-isoxazol-5-yl]-biphenyl-4-yl}-cyclopropanecarboxylic acid]"
6,< 300,"Cc1noc(-c2ccc(-c3ccc(C4(C(=O)O)CC4)cc3)cc2)c1NC(C)CCc1ccccc1 (single isomer, unassigned) [Compound 1-221, 1-{4′-[3-Methyl-4-(1-methyl-3-phenyl-propylamino)-isoxazol-5-yl]-biphenyl-4-yl}-cyclopropanecarboxylic acid]"
7,> 50000,"Cc1noc(-c2ccc(-c3ccc(CCC(=O)O)cc3)cc2)c1NC(C)CCc1cccc(C(F)(F)F)c1 (single isomer, unassigned) [Compound 1-234, 3-(4′-{3-Methyl-4-[1-methyl-3-(3-trifluoromethyl-phenyl)-propylamino]-isoxazol-5-yl}-biphenyl-4-yl)-propionic acid]"
8,< 300,"Cc1noc(-c2ccc(-c3ccc(CCC(=O)O)cc3)cc2)c1NC(C)CCc1cccc(C(F)(F)F)c1 (single isomer, unassigned) [Compound 1-235, 3-(4′-{3-Methyl-4-[1-methyl-3-(3-trifluoromethyl-phenyl)-propylamino]-isoxazol-5-yl}-biphenyl-4-yl)-propionic acid]"
9,< 300,"Cc1noc(-c2ccc(-c3ccc(C4(C(=O)O)CC4)cc3)cc2)c1NC(C)CCc1cccc(Cl)c1 (single isomer, unassigned) [Compound 1-239, 1-(4′-{4-[3-(3-Chloro-phenyl)-1-methyl-propylamino]-3-methyl-isoxazol-5-yl}-biphenyl-4-yl)-cyclopropanecarboxylic acid]"
10,< 300,"Cc1noc(-c2ccc(-c3ccc(C4(C(=O)O)CC4)cc3)cc2)c1NC(C)CCc1cccc(Cl)c1 (single isomer, unassigned) [Compound 1-240, 1-(4′-{4-[3-(3-Chloro-phenyl)-1-methyl-propylamino]-3-methyl-isoxazol-5-yl}-biphenyl-4-yl)-cyclopropanecarboxylic acid]"
11,300 to 1000,"Cc1noc(-c2ccc(-c3ccc(C4(C(=O)O)CC4)cc3)cc2)c1C(O)C(F)(F)CCc1ccccc1 (single isomer, unassigned) [Compound 1-254, 1-{4′-[4-(2,2-Difluoro-1-hydroxy-4-phenyl-butyl)-3-methyl-isoxazol-5-yl]-biphenyl-4-yl}-cyclopropanecarboxylic acid]"
12,< 300,"Cc1noc(-c2ccc(-c3ccc(C4(C(=O)O)CC4)cc3)cc2)c1/C=C/[S+]([O-])Cc1ccccc1 (single isomer, unassigned) [Compound 1-262, 1-(4′-{3-Methyl-4-[(E)-2-(phenylmethanesulfinyl)-vinyl]-isoxazol-5-yl}-biphenyl-4-yl)-cyclopropanecarboxylic acid]"
13,1000 to 50000,"Cc1noc(-c2ccc(-c3ccc(C4(C(=O)O)CC4)cc3)cc2)c1/C=C/[S+]([O-])Cc1ccccc1 (single isomer, unassigned) [Compound 1-263, 1-(4′-{3-Methyl-4-[(E)-2-(phenylmethanesulfinyl)-vinyl]-isoxazol-5-yl}-biphenyl-4-yl)-cyclopropanecarboxylic acid]"
14,< 300,"Cc1noc(-c2ccc(-c3ccc(C4(C(=O)O)CC4)cc3)cc2)c1NC(C)C(O)Cc1ccccc1 (single isomer, unassigned) [Compound 1-282, 1-{4′-[4-(2-Hydroxy-1-methyl-3-phenyl-propylamino)-3-methyl-isoxazol-5-yl]-biphenyl-4-yl}-cyclopropanecarboxylic acid]"
